# Columns and labels:
# [1] = test system: Zika virus; assay: Functional CPE-based assay to measure dose dependent changes in antiviral-drug inhibitory efficacy against Zika virus MR766 in Vero E6 miRFP670 cells (cotreated with P-gp inhibitor, CP100356). Cells are treated with antiviral candidates that are serially diluted. EC50 is reported via analysis of MTS assay as a readout of CPE. The assay has been performed by KU Leuven.; assay type: organism-based, Chlorocebus sabaeus, Vero C1008; details: Zika virus
# [2] = test system: dengue virus type 2; assay: Functional assay to measure dose dependent changes in antiviral-drug inhibitory efficacy against Dengue virus type 2 New Guinea C in Vero E6 miRFP670 cells (cotreated with P-gp inhibitor, CP100356). Cells are treated with antiviral candidates that are serially diluted, following infection, cells are fixed. EC50 is reported via analysis of fluorescence intensity using high-content imager. The …; assay type: organism-based, Chlorocebus sabaeus, Vero C1008; details: Dengue virus; for EC90: P-gp concentration 500 nM, P-gp inhibitor CP100356
SMILES,EC50 ([1]; Vero C1008) [µM],EC50 ([2]; Vero C1008) [µM],other results
O=C(Nc1ccc2c(c1)CNC2)c1cc(F)cc(-c2cn[nH]c2)c1,> 50,1.11,"EC90 ([1]; Vero C1008, Baseline response 0 %, Hill slope 1.1, Maximum measured 49.9 %, Maximum response 100 %, Minimum measured 5.357 %, P-gp concentration 500 nM, R squared 0.912, P-gp inhibitor CP100356): > 50 µM; EC90 ([2]; Vero C1008, Baseline response 0 %, EC90 CI (lower) 0.042 uM, EC90 CI (upper) 0.221 uM, Hill slope -0.898, Maximum measured 65.167 %, Maximum response 100 %, Minimum measured 5.409 %, R squared 0.901): 12.8 µM"
N#Cc1cccc(-c2nc3c(C(=O)Nc4ccc5c(c4)CNC5)cc(F)cc3[nH]2)c1,> 50,> 6.25,"EC90 ([1]; Vero C1008, Baseline response 0 %, Hill slope 0.393, Maximum measured 36.291 %, Maximum response 100 %, Minimum measured 0.187 %, P-gp concentration 500 nM, R squared 0.325, P-gp inhibitor CP100356): > 50 µM; EC90 ([2]; Vero C1008, Baseline response 0 %, Hill slope 1.695, Maximum measured 158.102 %, Maximum response 100 %, Minimum measured 53.067 %, R squared 0.44): > 6.25 µM"
O=C(Nc1cc2c(c(-c3c[nH]c(=O)c(F)c3)c1)CNC2)c1cc(F)cc2[nH]ncc12,> 50,> 25,"EC90 ([1]; Vero C1008, Baseline response 0 %, Hill slope 0.515, Maximum measured 9.878 %, Maximum response 100 %, Minimum measured 0.944 %, P-gp concentration 500 nM, R squared 0.362, P-gp inhibitor CP100356): > 50 µM; EC90 ([2]; Vero C1008, Maximum measured 138.883 %, Minimum measured 79.511 %): > 25 µM"
COc1cccc(-c2nc3c(C(=O)Nc4ccc5c(c4)CNC5)cc(F)cc3[nH]2)c1,> 50,> 50,"EC90 ([1]; Vero C1008, Baseline response 0 %, Hill slope -1.02, Maximum measured 11.362 %, Maximum response 100 %, Minimum measured -3.329 %, P-gp concentration 500 nM, R squared 0.203, P-gp inhibitor CP100356): > 50 µM; EC90 ([2]; Vero C1008, Maximum measured 205.039 %, Minimum measured 143.371 %): > 50 µM"
CO[C@H]1C[C@H](n2ncc3c(C(=O)Nc4ccc5c(c4)CNC5)cc(Cl)cc32)C1,3.1,> 12.5,"EC90 ([1]; Vero C1008): 3.53 µM; EC90 ([2]; Vero C1008, Baseline response 0 %, Hill slope 0.569, Maximum measured 146.378 %, Maximum response 100 %, Minimum measured 74.589 %, R squared 0.043): > 12.5 µM"
COc1ccccc1-c1nc2c(C(=O)Nc3ccc4c(c3)CNC4)cc(F)cc2[nH]1,> 50,> 12.5,"EC90 ([1]; Vero C1008, Baseline response 0 %, Hill slope 1.211, Maximum measured 45.367 %, Maximum response 100 %, Minimum measured -3.491 %, P-gp concentration 500 nM, R squared 0.953, P-gp inhibitor CP100356): > 50 µM; EC90 ([2]; Vero C1008, Baseline response 0 %, Hill slope -1.284, Maximum measured 263.72 %, Maximum response 267.598 %, Minimum measured 165.032 %, R squared 0.972): > 12.5 µM"
O=C(Nc1ccc2c(c1)CNC2)c1cc(F)cc2[nH]c(-c3cccc(F)c3)nc12,> 50,> 1.56,"EC90 ([1]; Vero C1008, Baseline response 0 %, Hill slope 2.278, Maximum measured 12.458 %, Maximum response 100 %, Minimum measured -7.568 %, P-gp concentration 500 nM, R squared 0.376, P-gp inhibitor CP100356): > 50 µM; EC90 ([2]; Vero C1008, Baseline response 0 %, Hill slope -0.435, Maximum measured 206.615 %, Maximum response 236.845 %, Minimum measured 186.851 %, R squared 0.182): > 1.56 µM"
N#Cc1cc2c(cc1NC(=O)c1cc(F)cc3[nH]ncc13)CNC2,2.09,> 25,"EC90 ([1]; Vero C1008, Baseline response 0 %, EC90 CI (lower) 2.64 uM, EC90 CI (upper) 7.54 uM, Hill slope 2.894, Maximum measured 123.396 %, Maximum response 100 %, Minimum measured 1.493 %, P-gp concentration 500 nM, R squared 0.93, P-gp inhibitor CP100356): 4.46 µM; EC90 ([2]; Vero C1008, Maximum measured 167.339 %, Minimum measured 79.168 %): > 25 µM"
Cc1cccc(-c2nc3c(C(=O)Nc4ccc5c(c4)CNC5)cc(F)cc3[nH]2)c1,> 50,> 50,"EC90 ([1]; Vero C1008, Maximum measured 1.316 %, Minimum measured -3.721 %, P-gp concentration 500 nM, P-gp inhibitor CP100356): > 50 µM; EC90 ([2]; Vero C1008, Maximum measured 188.282 %, Minimum measured 128.713 %): > 50 µM"
C=Cc1cc2c(cc1NC(=O)c1cc(F)cc3[nH]ncc13)CNC2,5.17,> 6.25,"EC90 ([1]; Vero C1008, Baseline response 0 %, EC90 CI (lower) 8.54 uM, EC90 CI (upper) 30.093 uM, Hill slope 1.942, Maximum measured 120.806 %, Maximum response 100 %, Minimum measured 10.445 %, P-gp concentration 500 nM, R squared 0.918, P-gp inhibitor CP100356): 16 µM; EC90 ([2]; Vero C1008, Maximum measured 131.207 %, Minimum measured 113.262 %): > 6.25 µM"
O=C(Nc1ccc2c(c1)CNC2)c1ccc2c(C3=CCNCC3)csc2c1,9.31,1.33,"EC90 ([1]; Vero C1008, Baseline response 0 %, Hill slope 1.989, Maximum measured 64.405 %, Maximum response 100 %, Minimum measured 3.372 %, P-gp concentration 500 nM, R squared 0.951, P-gp inhibitor CP100356): > 12.5 µM; EC90 ([2]; Vero C1008, Baseline response 0 %, Hill slope -1.321, Maximum measured 86.909 %, Maximum response 100 %, Minimum measured 20.548 %, R squared 0.914): > 6.25 µM"
Cc1ccc(-c2nc3c(C(=O)Nc4ccc5c(c4)CNC5)cc(F)cc3[nH]2)cc1,> 50,> 50,"EC90 ([1]; Vero C1008, Baseline response 0 %, Hill slope 1.828, Maximum measured 11.314 %, Maximum response 100 %, Minimum measured -7.525 %, P-gp concentration 500 nM, R squared 0.394, P-gp inhibitor CP100356): > 50 µM; EC90 ([2]; Vero C1008, Baseline response 0 %, Hill slope -1.93, Maximum measured 263.734 %, Maximum response 225.04 %, Minimum measured 80.528 %, R squared 0.789): > 50 µM"
O=C(Nc1ccc2c(c1)CNC2)c1cc(Cl)cc2c1cnn2C[C@H]1CCCO1,6.36,> 50,"EC90 ([1]; Vero C1008, Baseline response 0 %, Hill slope 36.566, Maximum measured 122.907 %, Maximum response 100 %, Minimum measured 2.24 %, P-gp concentration 500 nM, R squared 0.938, P-gp inhibitor CP100356): 6.75 µM; EC90 ([2]; Vero C1008, Baseline response 0 %, Hill slope 0.931, Maximum measured 200.765 %, Maximum response 100 %, Minimum measured 63.333 %, R squared 0.208): > 50 µM"
O=C(Nc1ccc2c(c1)CNC2)c1cc(F)cc2[nH]c(-c3ccc(F)cc3)nc12,> 50,> 50,"EC90 ([1]; Vero C1008, Baseline response 0 %, Hill slope 2.324, Maximum measured 27.659 %, Maximum response 100 %, Minimum measured -7.999 %, P-gp concentration 500 nM, R squared 0.219, P-gp inhibitor CP100356): > 50 µM; EC90 ([2]; Vero C1008, Maximum measured 176.058 %, Minimum measured 96.502 %): > 50 µM"
COc1cc(-c2cc(NC(=O)c3cc(F)cc4[nH]ncc34)cc3c2CNC3)ccn1,3.92,> 50,"EC90 ([1]; Vero C1008, Baseline response 0 %, EC90 CI (lower) 3.129 uM, EC90 CI (upper) 14.718 uM, Hill slope 4.011, Maximum measured 135.364 %, Maximum response 100 %, Minimum measured -0.295 %, P-gp concentration 500 nM, R squared 0.873, P-gp inhibitor CP100356): 6.79 µM; EC90 ([2]; Vero C1008, Baseline response 0 %, Hill slope 0.386, Maximum measured 113.678 %, Maximum response 100 %, Minimum measured 63.234 %, R squared 0.283): > 50 µM"
CC(C)n1cc2c(C(=O)Nc3ccc4c(c3)CNC4)cc(Cl)cc2n1,1.67,> 12.5,"EC90 ([1]; Vero C1008): 1.93 µM; EC90 ([2]; Vero C1008, Maximum measured 192.332 %, Minimum measured 77.026 %): > 12.5 µM"
O=C(Nc1cc2c(c(C3=CCS(=O)(=O)CC3)c1)CNC2)c1cc(F)cc2[nH]ncc12,> 50,> 25,"EC90 ([1]; Vero C1008, Maximum measured 6.141 %, Minimum measured -2.074 %, P-gp concentration 500 nM, P-gp inhibitor CP100356): > 50 µM; EC90 ([2]; Vero C1008, Maximum measured 118.058 %, Minimum measured 98.99 %): > 25 µM"
O=C(Nc1ccc2c(c1)CNC2)c1cc(Cl)cc2c1cnn2C1CCC1,1.26,> 6.25,"EC90 ([1]; Vero C1008, Baseline response 0 %, EC90 CI (lower) 1.13 uM, EC90 CI (upper) 4.462 uM, Hill slope 3.792, Maximum measured 124.257 %, Maximum response 100 %, Minimum measured 13.491 %, P-gp concentration 500 nM, R squared 0.856, P-gp inhibitor CP100356): 2.25 µM; EC90 ([2]; Vero C1008, Maximum measured 167.025 %, Minimum measured 94.774 %): > 6.25 µM"
O=C(Nc1cc2c(c(C3=CCOCC3)c1)CNC2)c1cc(F)cc2[nH]ncc12,7.33,> 25,"EC90 ([1]; Vero C1008, Baseline response 0 %, EC90 CI (lower) 5.793 uM, EC90 CI (upper) 20.937 uM, Hill slope 5.397, Maximum measured 131.01 %, Maximum response 100 %, Minimum measured -1.308 %, P-gp concentration 500 nM, R squared 0.937, P-gp inhibitor CP100356): 11 µM; EC90 ([2]; Vero C1008, Maximum measured 218.898 %, Minimum measured 80.524 %): > 25 µM"
N[C@H]1Cc2ccc(NC(=O)c3cccc4c3CC(=O)N4)cc2C1,> 50,> 50,"EC90 ([1]; Vero C1008, Maximum measured 1.094 %, Minimum measured -1.183 %, P-gp concentration 500 nM, P-gp inhibitor CP100356): > 50 µM; EC90 ([2]; Vero C1008, Maximum measured 137.168 %, Minimum measured 87.065 %): > 50 µM"
